The NIST ThermoML archive (doi:10.1016/j.jct.2012.12.014)

Assay: mn = molality of the nth substance listed, in mol/kg
Details: 298.15 K, 101 kPa, Liquid, Vibrating tube method

Nc1cc[nH]c(=O)n1 [4-amino-2-hydroxypyrimidine] + O
Details	mass density [kg/m3]
m1 = 0.02193	997.872
m1 = 0.02698	998.062
m1 = 0.03192	998.246
m1 = 0.03702	998.438
m1 = 0.04187	998.618
m1 = 0.04604	998.777
m1 = 0.05099	998.96
m1 = 0.05598	999.144
m1 = 0.06284	999.402
